Literature values as cited in patent publication US8414913B2, “Edible compositions for lowering cholesterol” (Raisio Benecol Oy, priority 2001, dated 2013).

Tested on: total and low density lipoprotein (LDL) cholesterol level
Conditions: diets with high β-glucan content; Ripsin et al. 1992, Braaten et al. 1994

## β-glucan
  lowering of total and LDL cholesterol level: 8-12%
